Several values for one entry are separate records, joined by “and”; a condition that tells them apart may be missing. Equal entries are not always repeated. Structures can show the parent of a compound that is named as a salt.
Key:
[1] = Duration of vomiting and retching in dog after daily subcutaneous apomorphine HCl (Example 1); format: in vivo
[2] = Number of dogs acclimatized to retching/vomiting; blood pressure and heart rate (Example 2); format: in vivo, dog
Procedure: This study provides a different view of data recorded in Example 1.
Observations were made at three different dosage levels, 0.04, 0.1 and 0.4 mg/kg/day. No dose escalation was attempted in this study. A group of five dogs was used for tests at each dosage level. The number of dogs in each dosage group with a retching or vomiting episode in each post-administration time period was recorded for daily administration over about 180 days. Ten day averages were calculated and plotted (see FIGS. 3 through 6).
The blood pressure and heart rates of an untreated group of dogs was evaluated for comparison purposes.

[3] = Adverse events in escalating dose tolerance study in psychogenic male erectile dysfunction (Example 5); format: in vivo, human
Procedure: Example 5-Summary. This clinical study was conducted in three phases. In Phase 1 subjects were selected from among patients complaining of impotence by a thorough physiological and psychological assessment. For example, one step in the assessment process required candidates to undergo Rigiscan measurement of penile rigidity and circumference following administration of a placebo tablet in single blind fashion. Phase 2 consisted of a dose escalation (4, 6, and 8 mg tablets) administered on 4 visits. An out-patient phase was conducted as Phase 3. Patients were given apomorphine HCL tablets to use at home.
Example-5 Detailed Description (Clinical Study #94-03-01). The human study was conducted in three separate phases. Phase 1 consisted of selecting appropriate subjects and obtaining baseline information on sexual performance for each subject.
They were tested on four separate days at four separate doses (placebo and three active medication doses) with an interval of no less than six days between visits (i.e., one visit per week).
If the trial was aborted, the patient was given the choice of having Gravol 50 mg p.o. (an anti-emetic) administered at that time or enduring the adverse events as they arose. In either event, the patient was monitored by the research clinician until all side-effects had subsided. The patient was asked to return the following week for the next scheduled dose.
(§1) During the five-week, home-use phase, subjects were to attempt coitus at least once each week after taking a single APO tablet. After each attempt, the subject and their partner completed a Sexual Function questionnaire (See FIGS. 15 and 16) which was later evaluated and used for final statistical analysis.
The data was analyzed by an inspection of the reported adverse events, the given dose of apomorphine and the phase of the study, i.e., in-patient (dose escalating) or take-home (constant dose) phases.

[4] = Take-home sexual intercourse success rate (Example 5, Phase III); format: in vivo, human
Text: as §1
(§2) For the third phase, subjects had recorded at baseline, their satisfaction,erection, number of attempts, and successful intercourse on a VAS scale (see Tables Xa-Xc, above). Evaluateable subjects first recorded a success rate, then completed VAS for erection results and satisfaction with intercourse following take-home treatment. The success rates, as shown in Tables XVa-XVb, below, were calculated for milligrams of APO as well as for micrograms per kilogram of the patient's body weight doses (males). There were four criteria for recording a success in the take-home phase. […] Several evaluations of the data were made including the male and female responses to treatments via questionnaires (see FIGS. 15 and 16).

[5] = Take-home erection results, VAS questionnaire question 1 (Example 5, Phase III); format: in vivo, human; conditions: for Erection Results (Maximum) Percent Change from Baseline, LSMEAN: all sites; for Erection Results (Maximum) Percent Change from Baseline, MEAN: all doses, site #1, #2, #3, #4, listed as APO
Text: as §1, §2
(§3) Tables XVIIa--XVIId, below, show the statistical results of phase III with respect to Rigiscan™ results (a and b) and intercourse satisfaction (c and d) based on question 1 and question 3, respectively, from the completed questionnaires (see FIGS. 15 and 16). […] The maximum improvement from baseline were 56% in males and 59% in females. The mean improvement were 29% in males and 34% in females. […] The mean improvements were 34% in females and 45% in males.

[6] = Take-home intercourse satisfaction, VAS questionnaire question 3 (Example 5, Phase III); format: in vivo, human; conditions: for Satisfaction Percent Change from Baseline, LSMEAN / Satisfaction Percent Change from Baseline, MEAN: MALE
Text: as §1, §2, §3

[7] = mouse, cited from earlier work
[8] = 100-400 μg/kg, up to four days, primates; cited from earlier work
[9] = Side effects after subcutaneous, sublingual and oral apomorphine HCl in dog (Example 3)

CN1CCc2cccc3c2[C@H]1Cc1ccc(O)c(O)c1-3 [apomorphine HCl]
time to acclimatization (retching and vomiting) ([1]; 0.4 mg/kg/day s.c.): about 10 days | effect of escalation on vomiting/retching ([1]; 0.8 mg/kg/day after 21 days at 0.4 mg/kg/day): no evidence of an increase in vomiting/retching | wash out period required to establish homeostasis ([1]; after CNS supersensitivity): 4 to 6 weeks | effect of increasing dose by 100% of the acclimation dose on duration ([1]; after acclimation established): no corresponding increase in the duration of retching and vomiting | movement disorders ([1]; dose reduced from 1.2 to 0.8 mg/kg/day): movement disorders were again observed | average duration of retching/vomiting period ([1]; following daily administration): about 5 minutes | average duration of retching/vomiting period ([1]; following initial dose): about 30 minutes | time to acclimatization (retching and vomiting) ([1]; lower doses (0.05 mg/kg start), s.c. daily): ≤ 3 days | effect of challenge on duration of vomiting ([1]; lower doses, after 12 days, dose 100% greater than acclimatized dose): Only a small increase in the duration of vomiting | daily treatment needed for 80 percent effective acclimation ([2]; 0.4 mg/kg/day s.c.): about 3 months | net changes in blood pressure ([2]; after 5 months chronic treatment, vs untreated controls): not significantly different from the controls | heart rate after administration ([2]; after 5 months chronic treatment, 0.04, 0.1, 0.4 mg/kg/day): tachycardia sometimes occurs | bradycardia ([2]; initially, lost by acclimation): badycardia was reported in some subjects | Total Number of Adverse Events ([3]; Phase 2 (dose escalation), 4 mg/week): 31 | Total Number of Adverse Events ([3]; Phase 2 (dose escalation), 6 mg/week): 58 | Total Number of Adverse Events ([3]; Phase 2 (dose escalation), 8 mg/week): 50 | Total Number of Adverse Events ([3]; Phase 3 (out-patient), 4 mg): 15 | Total Number of Adverse Events ([3]; Phase 3 (out-patient), 6 mg): 13 | Total Number of Adverse Events ([3]; Phase 3 (out-patient), 8 mg): 8 | overall incidence of nausea ([3]; all administered doses): less than 13% | severe nausea cases ([3]; all doses): two | hypotension ([3]; also bradycardia, dizziness, syncope, pallor reported): reported as an adverse event in some subjects | Anti-Emetic In Patient, Total ([3]; in vivo): 8 | Anti-Emetic Take Home, Total ([3]; in vivo): 2 | In-Patient A.E.'s, Total ([3]; in vivo): 109 | Take-Home A.E.'s, Total ([3]; in vivo): 25 | decrease in adverse events per tablet ([3]; in vivo): ~95.6% | frequency of side effects ([3]; in vivo): 94.2% | incidence of vomiting ([3]; in vivo): less than 3% | increased sweating and fatigue ([3]; in vivo): also reported | severe hypotension and pallor ([3]; in vivo): Only single cases | severe increased sweating ([3]; in vivo): One of the cases | Sexual Intercourse Success Rate ([4]; Female, 6 mg, listed as APO): 73.3% and 73% | Sexual Intercourse Success Rate ([4]; Female, 35-50 μg/kg): 60.0% | Sexual Intercourse Success Rate ([4]; Female, 50-74 μg/kg, listed as APO): 82% | Sexual Intercourse Success Rate ([4]; Female, Overall): 70.0% | Sexual Intercourse Success Rate ([4]; Male, 6 mg, listed as APO): 73.3% and 73% | Sexual Intercourse Success Rate ([4]; Male, 35-50 μg/kg): 80.0% | Sexual Intercourse Success Rate ([4]; Male, 50-74 μg/kg, listed as APO): 73% | Sexual Intercourse Success Rate ([4]; Male, Overall): 70.0% | overall success rate ([4]; whole study, baseline rate 28%, listed as APO): 70% and 72% | Erection Results (Maximum) Percent Change from Baseline, LSMEAN ([5]; FEMALE, 4 mg): 33.57% | Erection Results (Maximum) Percent Change from Baseline, LSMEAN ([5]; FEMALE, 6 mg): 45.00% | Erection Results (Maximum) Percent Change from Baseline, LSMEAN ([5]; FEMALE, 8 mg): 59.00% | Erection Results (Maximum) Percent Change from Baseline, MEAN ([5]; FEMALE): 52.56% and 41.25% and 46.50% and 36.29% | Erection Results (Maximum) Percent Change from Baseline, LSMEAN ([5]; MALE, 4 mg): 55.71% | Erection Results (Maximum) Percent Change from Baseline, LSMEAN ([5]; MALE, 6 mg): 42.80% | Erection Results (Maximum) Percent Change from Baseline, LSMEAN ([5]; MALE, 8 mg): 31.86% | Erection Results (Maximum) Percent Change from Baseline, MEAN ([5]; MALE): 52.22% and 57.00% and 36.22% and 33.00% | erection rigidity, mean improvement ([5]; females): 34% | erection rigidity, maximum improvement from baseline ([5]; females (best at 8 mg)): 59% | erection rigidity, mean improvement ([5]; males): 29% | erection rigidity, maximum improvement from baseline ([5]; males (best at 4 mg)): 56% | Satisfaction (Maximum) Change from Baseline, LSMEAN ([6]; FEMALE, 4 mg, all sites): 41.86 | Satisfaction (Maximum) Change from Baseline, LSMEAN ([6]; FEMALE, 6 mg, all sites): 40.60 | Satisfaction (Maximum) Change from Baseline, LSMEAN ([6]; FEMALE, 8 mg, all sites): 62.33 | Satisfaction (Maximum) Change from Baseline, MEAN ([6]; FEMALE, all doses, site #1, #2, #3, #4, listed as APO): 57.00 and 37.75 and 33.29 | Satisfaction Percent Change from Baseline, LSMEAN ([6]; 4 mg, all sites): 49.14% | Satisfaction Percent Change from Baseline, LSMEAN ([6]; 6 mg, all sites): 51.47% | Satisfaction Percent Change from Baseline, MEAN ([6]; 6 mg, all sites, site #1, #2, #3, #4, listed as APO): 51.47% and 40.60% and 59.50% and 54.50% and 58.00% | Satisfaction Percent Change from Baseline, LSMEAN ([6]; 8 mg, all sites): 56.57% | Satisfaction Percent Change from Baseline, MEAN ([6]; all doses, b893 site #1, b897 #2, b901 #3, b905 #4, listed as APO): 58.00% and 48.50% and 49.56% and 50.00% | VAS satisfaction, mean improvement ([6]; females): 34% | VAS satisfaction, maximum improvement from baseline ([6]; females, 8 mg): 62% | VAS satisfaction, mean improvement ([6]; males): 45% | VAS satisfaction, maximum improvement from baseline ([6]; males, 8 mg): 57% | lethality at or above about 13 mg/kg ([7]; single bolus subcutaneous): reported lethal | LD50 [7]: > 50 mg/kg | adverse effects of multiple doses [8]: without major adverse effects | Average Severity ([9]; oral 0.2 mg/kg): 0.00% | number of animals having nausea/vomiting ([9]; oral 0.2 mg/kg, 8 min, 4 animals per group): 0 | number of animals having nausea/vomiting ([9]; oral 0.2 mg/kg, 15 min): 0 | number of animals having nausea/vomiting ([9]; oral 0.2 mg/kg, 30 min): 0 | Average Severity ([9]; subcutaneous 0.04 mg/kg): 150.00% | number of animals having nausea/vomiting ([9]; subcutaneous 0.04 mg/kg, 8 min, 4 animals per group): 4 | number of animals having nausea/vomiting ([9]; subcutaneous 0.04 mg/kg, 15 min): 2 | number of animals having nausea/vomiting ([9]; subcutaneous 0.04 mg/kg, 30 min): 0 | Average Severity ([9]; sublingual 0.2 mg/kg): 50.00% | number of animals having nausea/vomiting ([9]; sublingual 0.2 mg/kg, 8 min, 4 animals per group): 0 | number of animals having nausea/vomiting ([9]; sublingual 0.2 mg/kg, 15 min): 1 | number of animals having nausea/vomiting ([9]; sublingual 0.2 mg/kg, 30 min): 1
